# Measured values published in patent US11643421B2, “Process for the preparation of tricyclic PI3K inhibitor compounds and methods for using the same for the treatment of cancer” (priority 2015, dated 2023).
# Experiments:
# CLK1 = CLK1 (Homo sapiens, UniProt P49759); experiment: biochemical; conditions: read-out: % inhib
# p70S6K = p70S6K (Homo sapiens, UniProt P23443); experiment: biochemical; conditions: read-out: % inhib
# [1] = test system: U87 MG Merchant (MG/M) human glioblastoma xenografts
# Procedure: All in vivo studies were conducted in compliance with Genentech's Institutional Animal Care and Use Committee. […] Cells in log-phase growth were harvested and resuspended in HBSS:Matrigel (BD Biosciences; Franklin Lakes, N.J.) (1:1, v:v) for injection into female NCr nude mice (Taconic Farms, Cambridge City, Ind.) aged 20 weeks. Animals received five million cells subcutaneously in the right lateral thorax in 0.1 mL. […] The inhibitor was formulated once weekly in 0.5% methylcellulose and 0.2% Tween-80 at concentrations needed for target doses in a volume of 0.2 mL. All formulations were stored in a refrigerator and brought to room temperature and mixed well by vortex before oral administration by gavage once daily for 23 days. Tumor volumes were calculated from perpendicular length and width caliper measurements using the formula: Tumor Volume (mm^3)=0.5×(Length×Width^2). Changes in body weights are reported as a percentage change from the starting weight.
# Log 2(tumor volume) growth traces were fitted to each dose group with restricted cubic splines for the dose and fixed time effects. […] Fitted tumor volumes were plotted in the natural scale in Prism (version 5.0b for Mac) (GraphPad Software; La Jolla, Calif.). Linear mixed-effects analysis was also employed using R to analyze the repeated measurement of body weight changes from the same animals over time.
# The mice control group was administered the vehicle in the absence of the drug once at the same dosage schedule. Changes in tumor volumes over time by dose for each compound are depicted in FIG. 3 as cubic spline fits generated via Linear Mixed Effects analysis of log-transformed volumes.
# Chain of CLK1 (P49759 whole entry): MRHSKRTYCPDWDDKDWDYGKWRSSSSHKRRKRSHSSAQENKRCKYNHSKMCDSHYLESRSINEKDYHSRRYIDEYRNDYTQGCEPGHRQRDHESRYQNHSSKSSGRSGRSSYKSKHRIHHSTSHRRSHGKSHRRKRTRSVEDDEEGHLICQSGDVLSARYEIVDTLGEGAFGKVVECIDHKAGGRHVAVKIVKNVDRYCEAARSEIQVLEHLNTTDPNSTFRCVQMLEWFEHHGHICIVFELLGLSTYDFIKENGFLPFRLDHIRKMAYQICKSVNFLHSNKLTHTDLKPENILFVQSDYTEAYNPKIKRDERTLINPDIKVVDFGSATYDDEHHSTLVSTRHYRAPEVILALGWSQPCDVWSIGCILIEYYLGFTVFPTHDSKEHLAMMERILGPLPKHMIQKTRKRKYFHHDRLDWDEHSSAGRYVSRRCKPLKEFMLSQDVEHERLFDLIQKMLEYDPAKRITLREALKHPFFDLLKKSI
# Chain of p70S6K (P23443 whole entry): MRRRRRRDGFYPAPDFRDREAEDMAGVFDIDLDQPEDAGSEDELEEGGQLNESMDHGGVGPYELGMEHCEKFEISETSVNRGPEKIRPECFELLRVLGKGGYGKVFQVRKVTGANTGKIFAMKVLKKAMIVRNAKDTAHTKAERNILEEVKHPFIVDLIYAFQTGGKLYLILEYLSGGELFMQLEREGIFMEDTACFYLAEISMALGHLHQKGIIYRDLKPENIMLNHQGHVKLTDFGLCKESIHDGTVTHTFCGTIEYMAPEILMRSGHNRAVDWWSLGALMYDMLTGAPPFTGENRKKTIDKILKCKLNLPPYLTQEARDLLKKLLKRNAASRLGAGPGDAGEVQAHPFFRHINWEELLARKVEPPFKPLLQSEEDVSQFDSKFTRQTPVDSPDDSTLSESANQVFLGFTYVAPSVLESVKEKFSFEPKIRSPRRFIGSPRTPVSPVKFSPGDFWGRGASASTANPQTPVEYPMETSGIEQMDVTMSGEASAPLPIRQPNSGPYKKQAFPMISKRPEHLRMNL
structure (smiles),measurement,setting,value
"CC1(C)OCCn2c1nc1c(N3CCOCC3)nc(-c3cnc(N)nc3)nc12 [GDC-0084, 5-(6,6-dimethyl-4-morpholino-8,9-dihydro-6H-[1,4]oxazino[3,4-e]purin-2-yl)pyrimidin-2-amine]",inhibition at 1 µM,CLK1,4%
same,inhibition at 1 µM,p70S6K,6%
same,tumor response at highest dose,[1]; 17.9 mg/kg dose level,tumor regressions
same,tumor growth inhibition,"[1]; 0.45-17.9 mg/kg oral, 23 days",significant and dose-dependent tumor growth inhibition
same,tolerability,"[1]; mouse, in vivo",well tolerated
same,dose level at which tumor growth inhibition was first observed,[1]; oral dose escalation,2.2 mg/kg
